The molecules below were run against Prostasin (Homo sapiens, UniProt Q16651) (assay: Binding affinity to human prostasin).
Chain of Prostasin (Q16651 45-322 limits assumed, other chains not shown): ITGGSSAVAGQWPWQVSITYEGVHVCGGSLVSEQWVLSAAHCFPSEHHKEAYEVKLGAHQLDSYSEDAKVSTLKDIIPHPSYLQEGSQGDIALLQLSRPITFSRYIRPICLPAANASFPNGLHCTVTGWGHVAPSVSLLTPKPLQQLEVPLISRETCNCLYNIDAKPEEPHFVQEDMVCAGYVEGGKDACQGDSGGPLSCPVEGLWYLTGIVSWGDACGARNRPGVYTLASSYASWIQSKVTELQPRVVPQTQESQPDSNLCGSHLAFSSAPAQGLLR

SMILES | Ki [nM]
CS(=O)(=O)c1ccc(CNC(=O)O[C@@H]2C[C@@H](C(=O)N[C@@H](CCCCN)C(=O)c3nc4ccccc4o3)N(C(=O)[C@@H](CCc3ccccc3)NC(=O)OCc3ccccc3)C2)cc1 | 176
NCCCC[C@H](NC(=O)[C@@H]1C[C@@H](OCc2cccc(C(F)(F)F)c2)CN1C(=O)[C@@H](CCc1ccccc1)NC(=O)OCc1ccccc1)C(=O)c1nc2ccccc2o1 | 41
NCCCC[C@H](NC(=O)[C@@H]1C[C@@H](OCc2ccc(F)cc2)CN1C(=O)[C@@H](CCc1ccccc1)NC(=O)OCc1ccccc1)C(=O)c1nc2ccccc2o1 | 27
NCCCC[C@H](NC(=O)[C@@H]1C[C@@H](OCc2ccc(Cl)cc2)CN1C(=O)[C@@H](CCc1ccccc1)NC(=O)OCc1ccccc1)C(=O)c1nc2ccccc2o1 | 12
CC(C)C[C@H](NC(=O)[C@H](Cc1cnc[nH]1)NC(=O)OCc1ccccc1)C(=O)N[C@@H](CCCCN)C(=O)c1nc2ccccc2o1 | 5720
NCCCC[C@H](NC(=O)[C@@H]1C[C@@H](OCC2CCCCC2)CN1C(=O)[C@@H](CCc1ccccc1)NC(=O)OCc1ccccc1)C(=O)c1nc2ccccc2o1 | 19
NCCCC[C@H](NC(=O)[C@@H]1[C@@H](c2ccccc2)CCN1C(=O)[C@@H](CCc1ccccc1)NC(=O)OCc1ccccc1)C(=O)c1nc2ccccc2o1 | 267
NCCCC[C@H](NC(=O)[C@H](CCc1ccccc1)NC(=O)[C@H](Cc1cnc[nH]1)NC(=O)OCc1ccccc1)C(=O)c1nc2ccccc2o1 | 2100
NCCCC[C@H](NC(=O)[C@H](CCc1ccccc1)NC(=O)OCc1ccccc1)C(=O)c1nc2ccccc2o1 | > 100000
CC(C)C[C@H](NC(=O)[C@H](CCCCN)NC(=O)OCc1ccccc1)C(=O)N[C@@H](CCCCN)C(=O)c1nc2ccccc2o1 | 15200
NCCCC[C@H](NC(=O)[C@@H]1C[C@@H](OCc2ccc(C(F)(F)F)cc2)CN1C(=O)[C@@H](CCc1ccccc1)NC(=O)OCc1ccccc1)C(=O)c1nc2ccccc2o1 | 28
CC(C)C[C@H](NC(=O)OCc1ccccc1)C(=O)N[C@@H](CCCCN)C(=O)c1nc2ccccc2o1 | > 100000

Results, then the molecule that gave them:

Ki [nM] | SMILES
510 | NCCCC[C@H](NC(=O)[C@@H]1C[C@@H](OC(=O)N2CCOCC2)CN1C(=O)[C@@H](CCc1ccccc1)NC(=O)OCc1ccccc1)C(=O)c1nc2ccccc2o1
1400 | NCCCC[C@H](NC(=O)[C@@H]1CCCN1C(=O)[C@@H](CCc1ccccc1)NC(=O)OCc1ccccc1)C(=O)c1nc2ccccc2o1
60 | NCCCC[C@H](NC(=O)[C@@H]1C[C@@H](OC(=O)NCc2ccccc2)CN1C(=O)[C@@H](CCc1ccccc1)NC(=O)OCc1ccccc1)C(=O)c1nc2ccccc2o1
45 | Cc1ccc(CO[C@@H]2C[C@@H](C(=O)N[C@@H](CCCCN)C(=O)c3nc4ccccc4o3)N(C(=O)[C@@H](CCc3ccccc3)NC(=O)OCc3ccccc3)C2)cc1
29 | NCCCC[C@H](NC(=O)[C@@H]1C[C@@H](OC(=O)N2CCCCC2)CN1C(=O)[C@@H](CCc1ccccc1)NC(=O)OCc1ccccc1)C(=O)c1nc2ccccc2o1
1550 | CN(C)C(=O)O[C@@H]1C[C@@H](C(=O)N[C@@H](CCCCN)C(=O)c2nc3ccccc3o2)N(C(=O)[C@@H](CCc2ccccc2)NC(=O)OCc2ccccc2)C1
1040 | NCCCC[C@H](NC(=O)[C@@H]1C[C@@H](O)CN1C(=O)[C@@H](CCc1ccccc1)NC(=O)OCc1ccccc1)C(=O)c1nc2ccccc2o1
65 | NCCCC[C@H](NC(=O)[C@@H]1C[C@@H](OCC2CCCC2)CN1C(=O)[C@@H](CCc1ccccc1)NC(=O)OCc1ccccc1)C(=O)c1nc2ccccc2o1
101 | NCCCC[C@H](NC(=O)[C@@H]1C[C@@H](OC(=O)N2CCCC2)CN1C(=O)[C@@H](CCc1ccccc1)NC(=O)OCc1ccccc1)C(=O)c1nc2ccccc2o1
49 | C[C@H]1CCN(C(=O)[C@@H](CCc2ccccc2)NC(=O)OCc2ccccc2)[C@@H]1C(=O)N[C@@H](CCCCN)C(=O)c1nc2ccccc2o1
130 | NCCCC[C@H](NC(=O)[C@@H]1C[C@@H](OC(=O)Nc2ccccc2)CN1C(=O)[C@@H](CCc1ccccc1)NC(=O)OCc1ccccc1)C(=O)c1nc2ccccc2o1
40 | NCCCC[C@H](NC(=O)[C@@H]1C[C@@H](OCc2ccccc2)CN1C(=O)[C@@H](CCc1ccccc1)NC(=O)OCc1ccccc1)C(=O)c1nc2ccccc2o1

Source: ChEMBL document CHEMBL1151797, “Discovery of inhibitors of the channel-activating protease prostasin (CAP1/PRSS8) utilizing structure-based design” (Bioorg Med Chem Lett, 2008)
